Assay results as given in publication PMC2396520, “Antibody Complementarity-Determining Regions (CDRs) Can Display Differential Antimicrobial, Antiviral and Antitumor Activities” (PLoS ONE, 2008).
Where two headings read alike, the source gives them in different places. Where a SMILES comes first, the peptide text is derived from it.

Assays:
Format in all cases: cell-based
HIV-1 BaL (R5) = assay: In vitro exogenous HIV-1 infection of PHA-stimulated PBMCs, BaL strain (p24 assay); conditions: day 10, p24, mean of 3 determinations
Procedure: (§1) Briefly, for endogenous HIV-1 replication assays peripheral blood mononuclear cells (PBMCs) from R5 HIV-1-infected patients characterized by high viral RNA titers in plasma and cell-associated viremia were cultured in 96-well plates at 1×10^6 cells/mL in RPMI 1640 medium with 10% fetal calf serum (FCS) and 20 U/mL of rIL-2. Exogenous rIL-2 was added every 3–4 days. Cultures were treated with synthetic mAb CDRs and mAb C7/pc42 H1 asd at 10 µg/mL during the time of culture. Virus production on days 5 and 10 was assayed in the supernatants using ultrasensitive Alliance® HIV-1 p24 ELISA kit (Perkin Elmer); p24 Ag in the supernatants of untreated cultures corresponded to 100% of viral production. For exogenous infection assays, PHA-stimulated PBMCs obtained from healthy individuals were infected with BaL (R5) or IIIB (X4) HIV-1 strain at a median tissue culture infective dose (TCID50) of 500 TCID50/ml. After 2 h of adsorption, the cells were washed, suspended at 2×10^5 cells/ml in medium and cultured in 96-well cultures plates. At time zero of infection, synthetic peptides were added to the cultures at 10 µg/ml and were maintained throughout the experiment. All assays were performed in triplicate. Virus production was assayed 10 days after infection in the supernatants of HIV-1-infected PBMCs by p24 assay.

Candida albicans UP10 = conditions: for Anti-Candida activity (%) at 100 µg/mL: 37°C, 6 h, triplicate; for EC50: UP10, 6 h; for EC50asd/EC50H2: anti-Candida EC50 of the derivative relative to C7/pc42 H2
Procedure: The alanine substituted derivatives (asd), defined according to the position held by the alanine-substituted aminoacid, were tested in the same biological assays to critically establish the functional relevance of each residue [5]. In vitro microbicidal activity of CDR peptides and selected asd against C. albicans UP 10 (clinical isolate from the fungi collection of the University of Parma) and C. albicans NCPF 3153 (National Collection of Pathogenic Fungi, Bristol, UK) were used for the in vitro experiments.
The microbicidal activity of synthetic CDRs against C. albicans strains was preliminarily evaluated by testing 100 µg/mL of each synthetic peptide by colony forming unit (CFU) assays as previously described [5]. Briefly, 10 µL of a distilled water suspension containing ∼5×10^4/mL germinating yeast cells were added to 90 µL of distilled water containing the synthetic peptide to be tested. Yeast suspensions were incubated at 37°C for 6 h. After incubation, the cell suspensions were plated on Sabouraud dextrose agar, incubated at 30°C and observed for CFU determination after 48–72 hours. Each assay was carried out in triplicate. […] EC50 was calculated by nonlinear regression analysis using Graph Pad Prism 4.01 software, San Diego, CA, USA.

R5 HIV-1 = conditions: for % inhibitory activity (10 µg/ml), endogenous HIV-1 replication: ex vivo, day 10 of culture, p24, mean of 3 determinations; for % inhibitory activity (10 µg/ml): R5, 2 h
Procedure: as §1

HIV-1 IIIB (X4) = assay: In vitro exogenous HIV-1 infection of PHA-stimulated PBMCs, IIIB strain (p24 assay); conditions: day 10, p24, mean of 3 determinations
Procedure: as §1

[1] = tested on: B16F10-Nex2 murine melanoma cells; conditions: 12 h
Procedure: Each peptide was tested in triplicate. After 12 h, the cytotoxic activities of the peptides were determined by measuring cell viability by Trypan Blue exclusion.

[2] = CDR peptides, 100 µg/mL in distilled water, CFU after 48–72 h, C. albicans UP10
[3] = C7/pc42 H2 alanine-substituted derivatives, 100 µg/mL, CFU assay

| Molecule | % inhibitory activity (10 µg/ml), exogenous HIV-1 replication, BaL (HIV-1 BaL (R5)) | Anti-Candida activity (%) at 100 µg/mL (Candida albicans UP10; [2]) | % inhibitory activity (10 µg/ml), endogenous HIV-1 replication (R5 HIV-1) | % inhibitory activity (10 µg/ml), exogenous HIV-1 replication, IIIB (HIV-1 IIIB (X4)) | % inhibitory activity (10 µg/ml) (R5 HIV-1) | further results |
| --- | --- | --- | --- | --- | --- | --- |
| ARQGVRGGAMD [C7 H3, synthetic peptide identical to heavy chain CDR H3 of mouse mAb C7] | 0% | 55.5% | 0% | 75% | – | – |
| DASNRAT [HuA L2, synthetic peptide identical to light chain CDR L2 of human IgM mAb HuA] | 0% | 0% | 32% | 0% | – | – |
| CSCC[C@H](NC(=O)[C@H](Cc1ccc(O)cc1)NC(=O)[C@H](Cc1ccc(O)cc1)NC(=O)[C@H](C)N)C(=O)N[C@@H](Cc1c[nH]cn1)C(=O)O [G1A] (H-AYYMH-OH; N-terminus and C-terminus assumed) | – | – | – | – | 0% | – |
| SYTFH [HuA H1, synthetic peptide identical to heavy chain CDR H1 of human IgM mAb HuA] | 84% | 12.9% | 38% | 0% | – | – |
| VLAYDGSYQHYADSVKG [HuA H2, synthetic peptide identical to heavy chain CDR H2 of human IgM mAb HuA] | 74% | 0% | 40% | 0% | – | – |
| CSCC[C@H](NC(=O)[C@H](C)NC(=O)[C@H](Cc1ccc(O)cc1)NC(=O)CN)C(=O)N[C@@H](Cc1c[nH]cn1)C(=O)O [Y3A] (H-GYAMH-OH; N-terminus and C-terminus assumed) | – | – | – | – | 90% | – |
| PNPLKAM [pc42 H3, synthetic peptide identical to heavy chain CDR H3 of mouse mAb pc42] | 11% | 25.9% | 0% | 0% | – | – |
| QHIRELTRSE [pc42 L3, synthetic peptide identical to light chain CDR L3 of mouse mAb pc42] | 0% | 83.9% | 0% | 0% | – | – |
| C[C@H](NC(=O)[C@H](Cc1ccc(O)cc1)NC(=O)[C@H](Cc1ccc(O)cc1)NC(=O)CN)C(=O)N[C@@H](Cc1c[nH]cn1)C(=O)O [M4A] (H-GYYAH-OH; N-terminus and C-terminus assumed) | – | – | – | – | 41% | – |
| GQTTVTKIDEDY [HuA H3, synthetic peptide identical to heavy chain CDR H3 of human IgM mAb HuA] | 0% | 19.2% | 36% | 0% | – | – |
| CSCC[C@H](NC(=O)[C@H](Cc1ccc(O)cc1)NC(=O)[C@H](Cc1ccc(O)cc1)NC(=O)CN)C(=O)N[C@@H](C)C(=O)O [H5A] (H-GYYMA-OH; N-terminus and C-terminus assumed) | – | – | – | – | 0% | – |
| CC[C@H](C)[C@H](NC(=O)[C@@H](N)Cc1ccc(O)cc1)C(=O)N[C@@H](CO)C(=O)N[C@@H](CS)C(=O)N[C@@H](Cc1ccc(O)cc1)C(=O)N[C@@H](C)C(=O)NCC(=O)N[C@@H](C)C(=O)N[C@H](C(=O)N[C@@H](CO)C(=O)N[C@@H](Cc1ccc(O)cc1)C(=O)N[C@@H](CC(N)=O)C(=O)N[C@@H](CCC(N)=O)C(=O)N[C@@H](CCCCN)C(=O)N[C@@H](Cc1ccccc1)C(=O)N[C@@H](CCCCN)C(=O)O)[C@@H](C)O [N6A] (H-YISCYAGATSYNQKFK-OH; N-terminus and C-terminus assumed) | – | – | – | – | – | EC50 [1]: 76.9 µM; Anti-Candida activity (%) at 100 µg/mL (Candida albicans UP10; [3]): 100.00%; EC50 (Candida albicans UP10): 1.54 µM; EC50asd/EC50H2 (Candida albicans UP10): 0.37 |
| CC[C@H](C)[C@H](NC(=O)[C@@H](N)Cc1ccc(O)cc1)C(=O)N[C@@H](CO)C(=O)N[C@@H](CS)C(=O)N[C@@H](C)C(=O)N[C@@H](CC(N)=O)C(=O)NCC(=O)N[C@@H](C)C(=O)N[C@H](C(=O)N[C@@H](CO)C(=O)N[C@@H](Cc1ccc(O)cc1)C(=O)N[C@@H](CC(N)=O)C(=O)N[C@@H](CCC(N)=O)C(=O)N[C@@H](CCCCN)C(=O)N[C@@H](Cc1ccccc1)C(=O)N[C@@H](CCCCN)C(=O)O)[C@@H](C)O [Y5A] (H-YISCANGATSYNQKFK-OH; N-terminus and C-terminus assumed) | – | – | – | – | – | EC50 [1]: 73.5 µM; Anti-Candida activity (%) at 100 µg/mL (Candida albicans UP10; [3]): 98.10%; EC50 (Candida albicans UP10): 28.5 µM; EC50asd/EC50H2 (Candida albicans UP10): 6.81 |
| CSCC[C@H](NC(=O)[C@H](Cc1ccc(O)cc1)NC(=O)[C@H](C)NC(=O)CN)C(=O)N[C@@H](Cc1c[nH]cn1)C(=O)O [Y2A] (H-GAYMH-OH; N-terminus and C-terminus assumed) | – | – | – | – | 61% | – |
| CC[C@H](C)[C@H](NC(=O)[C@@H](N)Cc1ccc(O)cc1)C(=O)N[C@@H](CO)C(=O)N[C@@H](CS)C(=O)N[C@@H](Cc1ccc(O)cc1)C(=O)N[C@@H](CC(N)=O)C(=O)NCC(=O)N[C@@H](C)C(=O)N[C@H](C(=O)N[C@@H](CO)C(=O)N[C@@H](Cc1ccc(O)cc1)C(=O)N[C@@H](CC(N)=O)C(=O)N[C@@H](C)C(=O)N[C@@H](CCCCN)C(=O)N[C@@H](Cc1ccccc1)C(=O)N[C@@H](CCCCN)C(=O)O)[C@@H](C)O [Q13A] (H-YISCYNGATSYNAKFK-OH; N-terminus and C-terminus assumed) | – | – | – | – | – | EC50 [1]: 128 µM; Anti-Candida activity (%) at 100 µg/mL (Candida albicans UP10; [3]): 100.00%; EC50 (Candida albicans UP10): 3.91 µM; EC50asd/EC50H2 (Candida albicans UP10): 0.93 |
| CC[C@H](C)[C@H](NC(=O)[C@@H](N)Cc1ccc(O)cc1)C(=O)N[C@@H](CO)C(=O)N[C@@H](CS)C(=O)N[C@@H](Cc1ccc(O)cc1)C(=O)N[C@@H](CC(N)=O)C(=O)NCC(=O)N[C@@H](C)C(=O)N[C@H](C(=O)N[C@@H](CO)C(=O)N[C@@H](Cc1ccc(O)cc1)C(=O)N[C@@H](CC(N)=O)C(=O)N[C@@H](CCC(N)=O)C(=O)N[C@@H](C)C(=O)N[C@@H](Cc1ccccc1)C(=O)N[C@@H](CCCCN)C(=O)O)[C@@H](C)O [K14A] (H-YISCYNGATSYNQAFK-OH; N-terminus and C-terminus assumed) | – | – | – | – | – | EC50 [1]: 384 µM; Anti-Candida activity (%) at 100 µg/mL (Candida albicans UP10; [3]): 91.72%; EC50 (Candida albicans UP10): 18.5 µM; EC50asd/EC50H2 (Candida albicans UP10): 4.41 |
